Measurements: ChEMBL document CHEMBL5120819, “Tanzawaic Acids from a Deep-Sea Derived Penicillium Species” (J Nat Prod, 2022)

Tests used:
[1] = Cytotoxicity against human A549 cells assessed as reduction in cell viability at 13 uM by SRB assay relative to control; type: toxicity, cell-based; details: read-out: GI
Escherichia coli = experiment: […] activity against Escherichia coli ATCC 35218 assessed as reduction in microbial growth after 12 to 18 hrs by microbroth dilution method; type: functional; details: time 12-18 hrs
Candida albicans = experiment: Antifungal activity against Candida albicans ATCC 10231 assessed as reduction in microbial growth after 12 to 18 hrs by microbroth dilution method; type: functional; details: time 12-18 hrs

MIC (Escherichia coli) [µg/mL] | SMILES | inhibition at 13 µM [1] [%] | MIC (Candida albicans) [µg/mL]
– | COc1ccc([C@@H]2SS[C@@]34C[C@]5(O)[C@H](OC(=O)/C=C/C=C/c6c(C)ccc7c6[C@H](C)C[C@H](C)C7)C=C[C@@H](O)[C@@H]5ON3C(=O)[C@@H]2N(C)C4=O)c(O)c1OC | 90.7 | –
10 | C[C@H]1C[C@@H](C)[C@@H]2[C@@H](/C=C/C=C/C(=O)O)[C@@H](C)C=C[C@H]2C1 | – | 20
– | COc1ccc([C@@H]2SS[C@@]34C[C@]5(O)[C@H](OC(=O)/C=C/C=C/[C@@H]6[C@H]7[C@H](C)C[C@H](C)C[C@@H]7C=C[C@@H]6C)C=C[C@@H](O)[C@@H]5ON3C(=O)[C@@H]2N(C)C4=O)c(O)c1OC | 51.7 | –
– | COc1ccc([C@@H]2SS[C@@]34C[C@]5(O)[C@H](O)C=C[C@@H](O)[C@@H]5ON3C(=O)[C@@H]2N(C)C4=O)c(O)c1OC | – | 30
